Experimental data published in patent US9403843B2, “Cysteine protease inhibitors and uses thereof” (The Trustees of Columbia University in the City of New York, priority 2012, dated 2016).
Where two headings read alike, the source gives them in different places. Each block holds one compound with its values, some of them ahead of it.

Legend:
[1] = system: Aβ-induced LTP impairment; assay: LTP rescue test; settings: assessed at 650 nM
Protocol: Residual levels of potentiation were averaged during the last 5 min of LTP.

[2] = target: T1, full-length human Cal1 (Homo sapiens (Human), UniProt P07384); assay: Calpain inhibition FRET assay; format: biochemical; settings: for IC50: Table 2, approximate IC50, read-out: Cal I IC50
T1 sequence (P07384 whole entry): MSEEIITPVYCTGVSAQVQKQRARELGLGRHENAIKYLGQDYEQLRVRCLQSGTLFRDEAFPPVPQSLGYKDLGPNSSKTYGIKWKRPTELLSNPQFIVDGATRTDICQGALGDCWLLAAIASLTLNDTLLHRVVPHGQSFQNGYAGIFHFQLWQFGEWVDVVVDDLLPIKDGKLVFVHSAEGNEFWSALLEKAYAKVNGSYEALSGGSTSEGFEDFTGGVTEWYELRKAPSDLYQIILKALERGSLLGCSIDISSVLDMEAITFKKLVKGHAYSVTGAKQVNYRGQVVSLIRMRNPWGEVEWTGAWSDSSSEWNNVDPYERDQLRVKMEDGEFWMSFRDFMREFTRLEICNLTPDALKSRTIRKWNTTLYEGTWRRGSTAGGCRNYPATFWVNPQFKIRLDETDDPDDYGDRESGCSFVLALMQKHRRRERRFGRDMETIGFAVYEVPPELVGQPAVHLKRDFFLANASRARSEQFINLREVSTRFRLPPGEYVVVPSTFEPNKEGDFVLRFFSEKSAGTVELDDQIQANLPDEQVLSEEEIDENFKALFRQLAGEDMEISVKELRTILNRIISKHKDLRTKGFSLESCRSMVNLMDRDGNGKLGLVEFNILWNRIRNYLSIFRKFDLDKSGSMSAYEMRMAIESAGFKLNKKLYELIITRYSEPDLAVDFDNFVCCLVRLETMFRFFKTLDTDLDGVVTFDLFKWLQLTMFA
T1 sequence (P04632 whole entry partner): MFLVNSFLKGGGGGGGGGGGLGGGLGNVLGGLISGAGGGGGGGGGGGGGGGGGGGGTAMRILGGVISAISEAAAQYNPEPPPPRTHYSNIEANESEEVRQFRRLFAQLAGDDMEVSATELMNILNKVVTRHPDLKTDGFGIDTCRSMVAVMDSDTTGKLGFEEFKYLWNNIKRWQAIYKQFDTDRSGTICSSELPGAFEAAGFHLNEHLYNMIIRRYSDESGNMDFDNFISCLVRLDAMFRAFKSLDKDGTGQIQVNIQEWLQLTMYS
Protocol: Calpain activity was measured using full-length human Cal1 in the presence of a FRET substrate. IC50 values were approximated by co-incubation of varying concentrations of the appropriate inhibitor (10, 100, 500, 1000 nM) in the presence of the FRET substrate (DABCYL)TPLK-SPPSPR-(EDANS) (SEQ ID NO: 5) and activation buffer. […] A peptide inhibitor, Z-LLY-FMK (SEQ ID NO: 6), was used as a positive control.
The Calbiochem InnoZyme activity kit was used for measuring the inhibition effect inhibitors on human erythrocyte calpain 1 activity. […] 20 μM of the FRET substrate, 10 nM of native Cal1, and 20 μM TCEP (reducing agent) were added to the reaction mixture containing assay buffer (Tris [10 mM], NaCl [100 mM], pH 7.4). Cal1 was activated by the addition of 10 μM calcium. Cleavage of the scissile bond amide bond, K-S, releases the fluorophore (EDANS) from the internal quenching molecule (DABCYL), resulting in an increase in fluorescence measured at 320 nm excitation and 480 nm emission wave lengths for 30 min. Each inhibitor was added to the reaction mixture at varying concentrations (10 nM, 100 nM, 1 μM, and 10 μM) to detect inhibition of Cal1 and reduction in fluorescence was measured by 96 well-plate reader. Approximate IC50 values of each compound were generated using linear regression within Graphpad Prism Software.

[3] = target: T1, full-length human Cal1; assay: Calpain inhibition FRET assay; format: biochemical; settings: Table 3, 20 min incubation, FRET substrate
[4] = system: Cal1cat vs CathB; assay: Competition assay for Cal1 vs CathB using the biotinylated epoxide probe; format: binding, rat; settings: individually and in combination
Protocol: Anti-biotin western blotting of Cal1cat (Lane 6) or CathB (Lane 7) after incubation with 27 show the expected immunoreactivity of the covalently modified proteins. […] Densitometric analysis, using means from triplicate immunoblots, was used to estimate the modification of each protein by 27 in the presence of inhibitors relative to control (Lane 1: ratio=1.0).
Cal1cat was used in place of the full length enzyme to avoid autocatalysis.
Cal1cat and CathB were pre-treated with inhibitors for 10 min, followed by a 20 min incubation with the biotinylated epoxide, 27, as illustrated in FIG. 4. […] A more quantitative estimate of selectivity was achieved by comparison of band intensities.
The appropriate inhibitor (5 μM) was pre-incubated in a mixture containing Cal1cat (2 μM), CathB (2 μM), TCEP (1 mM), and Ca^2+ (30 μM) for 10 min at 37° C. […] (5 μM) was then added and the mixture incubated an additional 20 min. The reaction was quenched with EDTA (10 μM) and samples were ran using 4-16% SDS PAGE gel, subsequently transferred to PVDF membrane and visualized by Pierce ECL (Enhanced chemiluminescent) western blotting substrate, intensity of each blot was calculated using densitometry software. Relative inhibition of each enzyme was calculated with respect to enzyme activity in the absence of inhibitor. Inhibitor preference to Cal1cat with respect to CathB, was calculated by dividing relative Cal1cat inhibition with relative CathB inhibition of that particular inhibitor.

[5] = target: papain (Carica papaya (Papaya), UniProt P00784); assay: biochemical; format: biochemical
Chain of papain (P00784 134-345): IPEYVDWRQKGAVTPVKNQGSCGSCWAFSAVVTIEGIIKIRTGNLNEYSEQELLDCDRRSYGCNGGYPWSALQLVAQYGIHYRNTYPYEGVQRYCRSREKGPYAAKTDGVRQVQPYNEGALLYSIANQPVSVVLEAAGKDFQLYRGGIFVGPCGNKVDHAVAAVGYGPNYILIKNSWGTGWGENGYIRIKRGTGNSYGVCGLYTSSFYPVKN
Text: (§1) Papain is representative of a family of typically lysosomal or secreted cysteine proteases, including the human cathepsins (B, C, F, H, K, L1-2, O, S, W, Z). […] Several methods have been reported in the literature for detailed kinetic analysis of the irreversible inhibition of cysteine proteases, including Cal1. […] (SEQ ID NO: 8). Using this substrate, kinetic parameters were derived using the method of Davies and co-workers, whereby “progress curves” were initially obtained measuring product formation as a function of time and fitted to y=P∞*(1−e^(−k*x)) (FIG. 7) (Cuerrier, D. et al., J Biol Chem 2007, 282, 9600-11; herein incorporated by reference in its entirety). […] Kinetic parameters (ki, KI, ki/KI) were obtained from double reciprocal plots (FIG. 7).
(§2) Full length porcine calpain (156 nM), or papain (236 pM) was added to a solution of 100 mM NaCl, 50 mM HEPES, pH 7.6, 1 mM TCEP, 30 μM Suc-LLVY-AMC (SEQ ID NO: 8) substrate, and inhibitor (0.5 to 50 μM). Calpain reactions also contained CaCl2 (1 mM and 100 mM for porcine and rat respectively). Both substrate and inhibitors were dissolved in acetonitrile/DMSO (1:1) with the exception of E-64, dissolved in water. Organic solvent remained <2% in all reactions, and most often <1%. Reactions were carried out in microtiter 96-well plates, with 150 μL per well, 30° C., and product formation was monitored over time by fluorescence (Ex/Em 346/444 nm, with 420 nm cutoff filter). Kinetic values of kobs were determined via non-linear regression using one-phase association analysis and linear plots of 1/kobs vs. 1/[I] provided kinetic constants ki and KI.

[6] = target: Full length porcine calpain (Sus scrofa (Pig), UniProt P35750); assay: Calpain inhibition kinetics studies (Suc-LLVY-AMC substrate); format: biochemical
Chain of Full length porcine calpain (P35750 whole entry): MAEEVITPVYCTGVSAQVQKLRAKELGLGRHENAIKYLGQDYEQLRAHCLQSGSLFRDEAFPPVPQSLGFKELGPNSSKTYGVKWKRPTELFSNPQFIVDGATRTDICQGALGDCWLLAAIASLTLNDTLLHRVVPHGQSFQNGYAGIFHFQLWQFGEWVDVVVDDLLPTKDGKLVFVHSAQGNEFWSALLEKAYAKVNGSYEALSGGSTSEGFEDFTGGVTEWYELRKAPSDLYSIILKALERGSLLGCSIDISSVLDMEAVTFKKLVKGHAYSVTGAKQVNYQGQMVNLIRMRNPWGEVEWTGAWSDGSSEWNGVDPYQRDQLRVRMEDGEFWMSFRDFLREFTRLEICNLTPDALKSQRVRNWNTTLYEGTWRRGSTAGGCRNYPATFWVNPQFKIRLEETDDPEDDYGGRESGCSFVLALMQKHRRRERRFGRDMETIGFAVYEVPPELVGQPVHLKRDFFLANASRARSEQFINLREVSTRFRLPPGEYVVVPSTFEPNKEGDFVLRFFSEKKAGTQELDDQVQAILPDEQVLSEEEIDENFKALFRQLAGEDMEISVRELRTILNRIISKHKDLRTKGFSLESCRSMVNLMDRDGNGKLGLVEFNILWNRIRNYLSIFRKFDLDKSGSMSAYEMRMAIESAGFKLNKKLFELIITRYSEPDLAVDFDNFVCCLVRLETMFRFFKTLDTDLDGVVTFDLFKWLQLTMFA
Chain of Full length porcine calpain (P04574 whole entry partner): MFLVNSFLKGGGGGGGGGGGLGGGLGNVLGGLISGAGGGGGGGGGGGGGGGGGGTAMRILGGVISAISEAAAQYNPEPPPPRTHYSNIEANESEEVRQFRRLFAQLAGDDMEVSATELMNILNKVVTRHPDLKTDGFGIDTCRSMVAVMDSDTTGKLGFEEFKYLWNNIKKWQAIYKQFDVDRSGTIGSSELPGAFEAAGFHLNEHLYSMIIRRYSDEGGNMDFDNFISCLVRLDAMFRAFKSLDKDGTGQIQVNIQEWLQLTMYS
Text: as §1, §2

[7] = >1: inhibition not quantifiable at 1 μM
[8] = ki/Ki calculated relative to E-64
[9] = mean ± S.D. of triplicate experiments

- Cal1 inhibition (in words) [2]: potent activity
- IC50 [2]: 40 nM
SMILES: O=C(NCc1cn(-c2ccc(Br)cc2)nn1)[C@H](Cc1cscn1)NC(=O)[C@H]1O[C@@H]1C(=O)O [Compound 55, (2S,3S)-3-((S)-1-((1-(4-bromophenyl)-1H-1,2,3-triazol-4-yl)methylamino)-1-oxo-3-(thiazol-4-yl)propan-2-ylcarbamoyl)oxirane-2-carboxylic acid]
- potency for LTP rescue compared with E64 [1]: did not surpass

- IC50 [3, 7]: > 1000 nM
- Cal1 inhibition (in words) [2]: relatively high IC50 values
- IC50 [2]: > 1000 nM
SMILES: Cc1cc(C)c(-n2cc(CNC(=O)[C@H](Cc3cscn3)NC(=O)[C@H]3O[C@@H]3C(=O)O)nn2)c(C)c1 [Compound 58, (2S,3S)-3-((S)-1-((1-mesityl-1H-1,2,3-triazol-4-yl)methylamino)-1-oxo-3-(thiazol-4-yl)propan-2-ylcarbamoyl)oxirane-2-carboxylic acid]

- IC50 [2]: 1000 nM
SMILES: O=C(O)[C@H]1O[C@@H]1C(=O)NC1(C(=O)NCCCCNS(=O)(=O)c2ccc(F)cc2)CCCCC1 [Compound 66]
- potency for LTP rescue compared with E64 [1]: surpassed E64

The next lines start with the compound.

SMILES: CC(C)C[C@H](NC(=O)[C@H]1O[C@@H]1C(=O)O)C(=O)NCCCCNC(=O)CCCC[C@@H]1SC[C@@H]2NC(=O)N[C@@H]21 [Compound 27, (2S,3S)-3-((S)-4-methyl-1-oxo-1-(4-(5-((3aS,4S,6aR)-2-oxohexahydro-1H-thieno[3,4-d]imidazol-4-yl)pentanamido)butylamino)pentan-2-ylcarbamoyl)oxirane-2-carboxylic acid]
- IC50 [3]: 100 nM
- covalent modification of Cal1 and CathB (anti-biotin immunoblotting) [4]: covalently modify both Cal1 and CathB
- Cal1 inhibition (in words) [2]: shown to be a Cal1 inhibitor
- IC50 [2]: 150 nM

SMILES: C#Cc1ccc(-c2csc(NC(=O)[C@H](Cc3cscn3)NC(=O)[C@H]3O[C@@H]3C(=O)O)n2)cc1 [Compound 34, (2S,3S)-3-((S)-1-(4-(4-ethynylphenyl)thiazol-2-ylamino)-1-oxo-3-(thiazol-4-yl)propan-2-ylcarbamoyl)oxirane-2-carboxylic acid]
- Ki ([5]; apparent equilibrium constant, read-out: K1 Papain): 9700 nM
- ki Papain ([5]; inhibition rate): 21.6 s⁻¹
- rel Papain [5, 8]: 0.40
- 10^−5 × ki/Ki Papain [5, 9]: 22.3 ± 0.24
- IC50 [3]: 100 nM
- Relative Selectivity ([6]; Cal1 over papain, ki/Ki relative to E-64 set at 1.0): 3.3
- Ki ([6]; apparent equilibrium constant, full length Cal1, read-out: K1 Calpain1): 3500 nM
- ki Calpain1 ([6]; inhibition rate, full length Cal1): 0.14 s⁻¹
- relative selectivity for inhibition of Cal1 over papain (in words) ([6]; ki/Ki as measure, compared with E-64): Cal1 selectivity
- rel Calpain1 [6, 8]: 1.3
- 10^−4 × ki/Ki Calpain1 [6, 9]: 3.89 ± 0.41

SMILES: CC(C)C[C@H](NC(=O)[C@H]1O[C@@H]1C(=O)O)C(=O)Nc1c(F)cccc1F [Compound 23a, (2S,3S)-3-((S)-1-(2,6-difluorophenylamino)-4-methyl-1-oxopentan-2-ylcarbamoyl)oxirane-2-carboxylic acid]
- IC50 [3]: 100 nM
- IC50 [2]: 50 nM

SMILES: NS(=O)(=O)c1ccc(-n2cc(CNC(=O)[C@H](Cc3cscn3)NC(=O)[C@H]3O[C@@H]3C(=O)O)nn2)cc1 [Compound 53, (2S,3S)-3-((S)-1-oxo-1-((1-(4-sulfamoylphenyl)-1H-1,2,3-triazol-4-yl)methylamino)-3-(thiazol-4-yl)propan-2-ylcarbamoyl)oxirane-2-carboxylic acid]
- IC50 [3, 7]: > 1000 nM
- Cal1 inhibition (in words) [2]: relatively high IC50 values
- IC50 [2]: > 1000 nM
